From paper PMC7957188, “An antitumor peptide RS17‐targeted CD47, design, synthesis, and antitumor activity” (Cancer Medicine, 2021)
Where no end group is shown, it is not given here. The star is where a group is joined. FITC = O=C1OC2(c3ccc(O)cc3Oc3cc(O)ccc32)c2ccc(NC(=S)*)cc21; Acp = not defined here

Key:
[1] = test system: HepG2 cells; assay: Flow cytometry binding of FITC‐RS17 to HepG2 cells; format: cell-based, human; details: 1 μM FITC‐RS17, 1 h, 37℃
Experimental: (§1) The peptides were synthesized using the solid‐phase peptide synthesis method. Amino acid activation phase included 1‐hydroxybenzotriazole (HOBt) and N, N′‐diisopropylcarbodiimide (DIC). Deprotection agent was piperidine (PIP). Following synthesis, the peptides were cleaved with 90% of trifluoroacetic acid (TFA) and precipitated with ether to obtain the crude product. The crude peptides were purified by HPLC and the molecular weight were measured by online ESI‐MS, respectively. Besides, the FITC‐RS17 peptide was prepared by coupling with FITC through the Acp active group to RS17. The product was purified and analyzed by the same process.
(§2) The SCC‐13 human cutaneous squamous cell carcinoma cell lines, HepG2 human HCC cell line, THP‐1 human mononuclear cell line, and mouse mononuclear/macrophage cell lines were from Chinese Academy of Sciences in Shanghai. SCC‐13 and HepG2 cells were incubated in DMEM medium which contains 100 μg/ml of streptomycin and 50 μg/ml of penicillin. The medium also contains 10% of fetal bovine serum from Gibco Life Technologies. […]
(§3) The binding of RS17 to the CD47‐expressing cells were assessed by the Flow cytometry technique. […]. ^14 In brief, HepG2 and SCC‐13 cells were collected and adjusted to 3 × 10^6 cells/ml. […] After washing with PBS, the cells were analyzed with a flow cytometer (Miltenyi Biotec GmbH). Data were analyzed with FlowJo 7.6.

[2] = test system: SCC‐13 cells; assay: Flow cytometry binding of FITC‐RS17 to SCC‐13 cells; format: cell-based, human; details: 1 μM FITC‐RS17, 1 h, 37℃
Experimental: as §1, §2, §3

[3] = Body weight / tolerability in nude mice, ex vivo experiment; details: 7 days
Experimental: Female Balb/c nude mice (4–5 weeks) were bred in the absence of pathogens to assess the antitumor activity of indirect therapies in vivo.
RFP‐positive HepG2 cells at a concentration of 2 × 10^7/ml were first co‐incubated for 1 h with 1 μM B6H12 (positive control) or RS17. The nude mice were separated into three groups (5 per group) and subcutaneously injected with 200 μl RFP‐positive HepG2 cells into the ventral side. Normal feeding lasted for 7 days. Body weight and tumor volume were measured in nude mice. Tumor dimensions were measured in two directions with and the formula of ½ × a × b ^2 (a, length; b, width) was used to calculate tumor volume. The intravital fluorescence intensity of the tumors were detected with PerkinElmer IVIS Spectrum on day 7.

[4] = test system: RFP HepG2 cells; details: in vivo, sc, 20 mg/kg
Experimental: RFP (CMV‐Puro) lentiviral particles were purchased from HanBio. 5 × 10^4 HepG2 in DMEM medium were seeded into each well of a 12‐well plate in presence of 10% FBS. A 6 μg/ml of Polybrene and 20 MOI lentivirus were added to each well. The cells were resuspended in DMEM medium in presence of 8 μg/ml puromycin after a 48‐h transfection. DMEM medium with 8 μg/ml of puromycin was replaced every 2 days for 1 week. RFP‐positive HepG2 cells were then acquired by flow cytometry. Polybrene and puromycin were from Sigma. Nude mice were subcutaneously injected with 2 × 10^7 RFP HepG2 cells into the ventral side and separated into three groups (5 per group). One of the groups was selected as the experimental group and received a daily subcutaneous injection with RS17 (20 mg/kg), the other two groups represented a positive control and a blank control and received a daily subcutaneous injection with B6H12 (20 mg/kg) and PBS, respectively. Daily injections were administered for 28 days. Body weight, tumor volume, and imaging on day 28 were carried out described above.

[5] = molecular target: T1, CD47 protein (Homo sapiens, UniProt Q08722); assay: Microscale thermophoresis (MST), RS17–CD47 interaction; format: binding; details: Monolith NT.115, NT‐Analysis, Cy5-labeled CD47 mixed 1:1 with diluted peptide, 5 min, room temperature, read-out: dissociation constant (Kd) for RS17 and CD47 interaction
T1 construct: CD47 protein was from Cloud‐Clone; purchased Cloud‐Clone
Experimental: CD47 protein was from Cloud‐Clone. The CD47 protein was dissolved in a buffer solution without primary amine compounds and exchanged by mixed column A. The CD47 protein was stained by Cy5 fluorescent dye (Ruixin Biological Technology) and after staining, the labeled protein was purified by column B. Finally, the RS17 peptides were diluted and mixed with the labeled protein in a 1:1 ratio. After incubating at room temperature for 5 min, samples were detected and data were processed by Monolith NT.115 and NT‐Analysis, which were from NanoTemper.
Microscale thermophoresis (MST) is an effective technique that accurately quantitates the interaction between two molecules. It depends on the thermo‐swimming movement of a molecule, which is a directional transfer of the molecule across a temperature gradient dependent on molecular properties such as molecular size, electric charge, and conformation. ^39 A Monolith NT.115 instrument was used as a platform to perform the MST experiment and the results were analyzed using the accompanying NT‐Analysis software.

[6] = molecular target: CD47 on SCC-13 and HepG2 tumor cells (human (endogenous in SCC-13 and HepG2)) (UniProt Q08722)
Chain of CD47 on SCC-13 and HepG2 tumor cells (human (endogenous in SCC-13 and HepG2)) (Q08722 19-323): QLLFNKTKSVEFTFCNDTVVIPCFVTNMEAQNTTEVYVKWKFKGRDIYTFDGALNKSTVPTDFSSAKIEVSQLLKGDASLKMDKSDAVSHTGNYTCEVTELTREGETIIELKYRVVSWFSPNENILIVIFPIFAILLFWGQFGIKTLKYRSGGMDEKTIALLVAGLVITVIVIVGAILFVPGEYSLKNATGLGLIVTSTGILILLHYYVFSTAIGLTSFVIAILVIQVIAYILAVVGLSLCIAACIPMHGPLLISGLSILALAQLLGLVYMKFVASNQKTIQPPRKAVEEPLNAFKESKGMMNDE

Q: For “FITC‐RS17: prepared by coupling with FITC through the Acp active group to RS17 ({FITC-Acp}-RRYKQDGGWSHWSPWSS; reading uncertain)”, which “binding of FITC‐RS17 to HepG2 cells (in words)” value [1] is on record?
A: Its value is “effectively bound”.

Q: What about the “binding of FITC‐RS17 to SCC‐13 cells (in words)” value [2] of the same molecule?
A: The value was “effectively bound”.

Q: Which tolerability [3] does the source give for RRYKQDGGWSHWSPWSS [RS17] here?
A: The tolerability was “well tolerated”.

Q: And the “inhibition of tumor growth” value [4]?
A: Its value is over 50%.

Q: And the Kd [5]?
A: The Kd was 3.86 ± 0.789 nM.

B1: RS17 peptide (peptide)
peptide: RRYKQDGGWSHWSPWSS
Q: Which in vivo: growth of HepG2 xenografts in nude mice with daily subcutaneous RS17 (20 mg/kg) for 28 days; pair blocked: CD47 on HepG2 and SIRPα on mouse macrophages [6] does the source give for B1 here?
A: The in vivo: growth of HepG2 xenografts in nude mice with daily subcutaneous RS17 (20 mg/kg) for 28 days; pair blocked: CD47 on HepG2 and SIRPα on mouse macrophages was over 50%.
